Assay results from US10206907B2, “Compounds useful for the treatment of degenerative and inflammatory diseases” (GALAPAGOS NV, priority 2008, dated 2019).

Assays:
[1] = biological target: Recombinant human JAK1 catalytic domain (Homo sapiens (Human), UniProt P23458); assay: JAK1 inhibition assay; assay type: biochemical; conditions: semi-quantitative score
How it was run: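 Radiometric assay read by scintillation counting after phosphoric-acid washes. Percent inhibition calculated from cpm relative to vehicle and 10 μM staurosporine control. IC50 derived from compound dose-dilution series.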

[2] = biological target: Recombinant human JAK2 catalytic domain (Homo sapiens (Human), UniProt O60674); assay: JAK2 inhibition assay; assay type: biochemical; conditions: semi-quantitative score
How it was run: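 Radiometric kinase reactions ran for 90 min at 30 °C and were stopped with phosphoric acid, then washed and counted by scintillation. Percent inhibition was set relative to vehicle and to 10 μM staurosporine background. IC50 was derived from dose-dilution series.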

[3] = biological target: Recombinant human JAK3 catalytic domain (Homo sapiens (Human), UniProt P52333); assay: JAK3 inhibition assay; assay type: biochemical; conditions: semi-quantitative score
Description: (§1) Plates were washed 6 times with 300 μL per well of a 75 mM phosphoric acid solution and the bottom of the plates was sealed. 40 μL/well of Microscint-20 was added, the top of the plates was sealed and readout was performed using the Topcount (Perkin Elmer). Kinase activity was calculated by subtracting counts per minute (cpm) obtained in the presence of a positive control inhibitor (10 μM staurosporine) from cpm obtained in the presence of vehicle. The ability of a test compound to inhibit this activity was determined as: Percentage inhibition=((cpm determined for sample with test compound present−cpm determined for sample with positive control inhibitor) divided by (cpm determined in the presence of vehicle−cpm determined for sample with positive control inhibitor))*100%.
Dose dilution series were prepared for the compounds enabling the testing of dose-response effects in the JAK3 assay and the calculation of the IC50 for each compound.

[4] = system: JAK-STAT signalling in HeLa cells; assay: JAK-STAT signalling assay (OSM-triggered pSTAT1(2)-luciferase reporter in HeLa cells); assay type: cell-based; conditions: Homo sapiens; HeLa cells, OSM-triggered pSTAT1(2)-luciferase reporter; read-out: STAT signalling EC50
How it was run: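 HeLa cells transiently transfected with pSTAT1(2)-luciferase reporter plus LacZ internal control, incubated overnight at 37 °C, 10% CO2, then OSM-stimulated with compound. Luciferase read by Steadylite luminescence and normalised to β-galactosidase (ONPG); percent inhibition from controls, EC50 from dose-response.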

MMP13 in SW1353 cells = assay: OSM/IL-1β signaling assay (MMP13 levels in SW1353 cells); assay type: cell-based; conditions: Homo sapiens; SW1353 cells, OSM and IL-1β triggered, MMP13 levels 48 hours after triggering; read-out: MMP13 EC50;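 note: secreted MMP13 captured by antibody, activated with APMA and its activity read by fluorescence, inhibition scaled between vehicle-treated triggered wells (0%) and untriggered wells (100%)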
[5] = Microsomal stability, human liver microsomes; assay type: in vitro ADME; conditions: percentage of compound remaining after 60 minutes, 3 μM compound
How it was run: (§2)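 Compound was incubated with liver microsomes plus an NADP+/glucose-6-phosphate/G6PDH/MgCl2 regenerating system at 37°C for 1 h. Reactions were stopped 1:1 with MeOH or ACN and analysed by LCMS.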

[6] = Microsomal stability, rat liver microsomes; assay type: in vitro ADME; conditions: percentage of compound remaining after 60 minutes, 3 μM compound
How it was run: as §2

[7] = Caco2 permeability (bi-directional); assay type: in vitro ADME, human; conditions: human, pH 7.4; for Papp A→B at 1 h, 10 µM: Caco-2, apical to basolateral, read-out: Papp (A2B); for efflux ratio at 1 h, 10 µM: Caco-2, ratio of PappB>A/PappA>B
How it was run: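 Bidirectional transport across Caco-2 monolayers was run for 1 h at 37 °C with shaking, with 50 μM Lucifer Yellow in the donor to check monolayer integrity (acceptance ≤100 nm/s). Apical and basal compound levels were measured by LC-MS/MS, and efflux ratio was taken as PappB>A/PappA>B.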

[8] = biological target: Recombinant human TYK2 catalytic domain (Homo sapiens (Human), UniProt P29597); assay: TYK2 inhibition assay; assay type: biochemical; conditions: semi-quantitative score
Description: as §1, with “After 90 min at 30° C., reactions were stopped by adding of 25 μL/well of 150 mM phosphoric acid. […] Plates” for “Plates”
Dose dilution series were prepared for the compounds enabling the testing of dose-response effects in the TYK2 assay and the calculation of the IC50 for each compound.

Sequence of Recombinant human JAK1 catalytic domain (P23458 850-1154): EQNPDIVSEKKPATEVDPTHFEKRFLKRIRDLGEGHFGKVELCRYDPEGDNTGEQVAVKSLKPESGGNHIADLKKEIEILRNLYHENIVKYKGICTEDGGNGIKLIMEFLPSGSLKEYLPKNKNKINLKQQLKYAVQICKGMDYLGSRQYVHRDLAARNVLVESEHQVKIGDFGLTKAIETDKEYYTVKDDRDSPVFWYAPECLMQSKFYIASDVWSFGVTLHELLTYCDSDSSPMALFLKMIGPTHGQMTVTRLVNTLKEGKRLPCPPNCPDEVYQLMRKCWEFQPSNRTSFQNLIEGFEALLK
Sequence of Recombinant human JAK2 catalytic domain (O60674 808-1132): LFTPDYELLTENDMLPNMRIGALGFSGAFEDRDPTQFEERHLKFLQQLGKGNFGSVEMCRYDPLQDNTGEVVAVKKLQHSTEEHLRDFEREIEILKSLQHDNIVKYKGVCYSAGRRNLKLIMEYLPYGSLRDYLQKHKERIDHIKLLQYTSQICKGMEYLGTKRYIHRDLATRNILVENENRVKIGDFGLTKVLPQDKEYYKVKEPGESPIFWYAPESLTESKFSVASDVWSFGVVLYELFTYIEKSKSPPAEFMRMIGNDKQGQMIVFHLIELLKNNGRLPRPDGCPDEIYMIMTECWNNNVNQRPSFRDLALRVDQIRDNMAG
Sequence of Recombinant human JAK3 catalytic domain (P52333 781-1124): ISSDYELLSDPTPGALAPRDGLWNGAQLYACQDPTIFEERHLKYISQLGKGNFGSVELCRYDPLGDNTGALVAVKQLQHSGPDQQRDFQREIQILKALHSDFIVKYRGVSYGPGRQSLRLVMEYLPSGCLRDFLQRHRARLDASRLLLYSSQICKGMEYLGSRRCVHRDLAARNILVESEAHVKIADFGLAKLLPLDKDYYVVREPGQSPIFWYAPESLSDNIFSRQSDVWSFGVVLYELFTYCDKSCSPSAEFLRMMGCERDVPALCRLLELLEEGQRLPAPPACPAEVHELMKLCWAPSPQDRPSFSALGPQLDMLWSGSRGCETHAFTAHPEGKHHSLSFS
Sequence of Recombinant human TYK2 catalytic domain (P29597 871-1187): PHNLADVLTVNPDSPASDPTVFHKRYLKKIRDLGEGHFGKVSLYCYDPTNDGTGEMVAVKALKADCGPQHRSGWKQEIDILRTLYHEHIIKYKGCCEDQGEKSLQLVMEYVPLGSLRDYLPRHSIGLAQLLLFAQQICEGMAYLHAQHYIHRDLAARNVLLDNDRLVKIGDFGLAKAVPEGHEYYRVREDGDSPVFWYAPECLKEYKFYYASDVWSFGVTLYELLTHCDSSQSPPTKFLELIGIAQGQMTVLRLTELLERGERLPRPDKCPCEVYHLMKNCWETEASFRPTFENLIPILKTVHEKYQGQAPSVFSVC

Row | Compound | IC50 [1] [nM] | IC50 [2] [nM] | IC50 [3] [nM] | EC50 [4] [nM] | EC50 (MMP13 in SW1353 cells) [nM] | Microsomal Stability Human (%) [5] | Microsomal Stability Rat (%) [6] | Papp A→B at 1 h, 10 µM [7] [×10⁻⁶ cm/s] | efflux ratio at 1 h, 10 µM [7] | IC50 [8] [nM]
1 | O=C(NCCOc1ccccc1)c1ccc(-c2cccc3nc(NC(=O)C4CC4)nn23)c(F)c1 [Compound 100, 4-(2-(cyclopropanecarboxamido)-[1,2,4]triazolo[1,5-a]pyridin-5-yl)-3-fluoro-N-(2-phenoxyethyl)benzamide] | < 100 | < 100 | > 1000 | > 1000 | > 1000 | * (* 0-25) | * (* 0-25) | 11.8 | 3.23 | –
2 | O=C(Nc1nc2cccc(-c3cnn(Cc4ccccc4)c3)n2n1)C1CC1 [Compound 107, N-(5-(1-benzyl-1H-pyrazol-4-yl)-[1,2,4]triazolo[1,5-a]pyridin-2-yl)cyclopropanecarboxamide] | < 100 | < 100 | > 1000 | > 1000 | > 1000 | * (* 0-25) | * (* 0-25) | 24.1 | 1.05 | –
3 | O=C(Nc1nc2cccc(-c3ccc(NCc4ccccc4)nc3)n2n1)C1CC1 [Compound 104, N-(5-(6-(benzylamino)pyridin-3-yl)-[1,2,4]triazolo[1,5-a]pyridin-2-yl)cyclopropanecarboxamide] | < 100 | 101 to 500 | > 1000 | > 1000 | > 1000 | * (* 0-25) | * (* 0-25) | 28 | 0.9 | –
4 | O=C(Nc1nc2cccc(-c3ccc(OCc4ncon4)cc3)n2n1)C1CC1 [Compound 99, N-(5-(4-((1,2,4-oxadiazol-3-yl)methoxy)phenyl)-[1,2,4]triazolo[1,5-a]pyridin-2-yl)cyclopropanecarboxamide] | < 100 | < 100 | 101 to 500 | 101 to 500 | 1 to 500 | ** (** 26-50) | * (* 0-25) | 38.9 | 0.81 | –
5 | O=C(Nc1nc2cccc(-c3ccc(CN4CCC(C(F)(F)F)CC4)cc3)n2n1)C1CC1 [Compound 240, Cyclopropanecarboxylic acid {5-[4-(4-trifluoromethyl-piperidin-1-ylmethyl)-phenyl]-[1,2,4]triazolo[1,5-a]pyridin-2-yl}-amide] | < 100 | < 100 | 501 to 1000 | 101 to 500 | > 1000 | ** (** 26-50) | *** (*** 51-75) | 29.6 | 1.3 | –
6 | O=C(Nc1nc2cccc(-c3ccc(C(=O)N4CCCN(Cc5ccccc5)CC4)cc3)n2n1)C1CC1 [Compound 75, N-(5-(4-(4-benzyl-1,4-diazepane-1-carbonyl)phenyl)-[1,2,4]triazolo[1,5-a]pyridin-2-yl)cyclopropanecarboxamide] | < 100 | 101 to 500 | > 1000 | > 1000 | 501 to 1000 | * (* 0-25) | * (* 0-25) | 18.2 | 2.5 | –
7 | O=C(Nc1nc2cccc(-c3ccc(CN4CCC(F)(F)CC4)cc3)n2n1)C1CC1 [Compound 234, Cyclopropanecarboxylic acid {5-[4-(4,4-difluoro-piperidin-1-ylmethyl)-phenyl]-[1,2,4]triazolo[1,5-a]pyridin-2-yl}-amide] | < 100 | < 100 | 101 to 500 | 501 to 1000 | 1 to 500 | ** (** 26-50) | ** (** 26-50) | 36.5 | 0.9 | –
8 | O=C(Nc1nc2cccc(-c3ccc(-c4cccnc4)cc3)n2n1)C1CC1 [Compound 66, N-(5-(4-(pyridin-3-yl)phenyl)-[1,2,4]triazolo[1,5-a]pyridin-2-yl)cyclopropanecarboxamide] | < 100 | 101 to 500 | – | > 1000 | > 1000 | **** (**** 76-100) | * (* 0-25) | – | – | 501 to 1000
9 | O=C(NCCc1ccc(C(F)(F)F)cc1)c1ccc(-c2cccc3nc(NC(=O)C4CC4)nn23)cc1 [Compound 97, 4-(2-(cyclopropanecarboxamido)-[1,2,4]triazolo[1,5-a]pyridin-5-yl)-N-(4-(trifluoromethyl)phenethyl) benzamide] | < 100 | < 100 | 101 to 500 | 101 to 500 | 501 to 1000 | * (* 0-25) | ** (** 26-50) | 23.8 | 2.61 | –

The next lines start with the values.

Row | IC50 [1] [nM] | IC50 [2] [nM] | IC50 [3] [nM] | EC50 [4] [nM] | EC50 (MMP13 in SW1353 cells) [nM] | Microsomal Stability Human (%) [5] | Microsomal Stability Rat (%) [6] | Papp A→B at 1 h, 10 µM [7] [×10⁻⁶ cm/s] | efflux ratio at 1 h, 10 µM [7] | IC50 [8] [nM] | Compound
10 | < 100 | 101 to 500 | > 1000 | 101 to 500 | > 1000 | *** (*** 51-75) | ** (** 26-50) | 7.78 | 5.2 | – | O=C(NCc1cccc(F)c1)c1ccc(-c2cccc3nc(NC(=O)C4CC4)nn23)cc1 [Compound 29, 4-(2-(cyclopropanecarboxamido)-[1,2,4]triazolo[1,5-a]pyridin-5-yl)-N-(3-fluorobenzyl)benzamide]
11 | < 100 | < 100 | 501 to 1000 | > 1000 | 501 to 1000 | * (* 0-25) | * (* 0-25) | – | 1.31 | – | O=C(Nc1nc2cccc(-c3ccc(NCc4ccccc4)cc3)n2n1)C1CC1 [Compound 72, N-(5-(4-(benzylamino)phenyl)-[1,2,4]triazolo[1,5-a]pyridin-2-yl)cyclopropanecarboxamide]
12 | < 100 | < 100 | 101 to 500 | 501 to 1000 | 1 to 500 | * (* 0-25) | * (* 0-25) | 8.14 | 5.09 | – | O=C(Nc1nc2cccc(-c3ccc(NS(=O)(=O)CCc4ccccc4)cc3)n2n1)C1CC1 [Compound 76, N-(5-(4-(2-phenylethylsulfonamido)phenyl)-[1,2,4]triazolo[1,5-a]pyridin-2-yl)cyclopropanecarboxamide]
13 | < 100 | < 100 | > 1000 | 501 to 1000 | 501 to 1000 | * (* 0-25) | * (* 0-25) | 27.7 | 1.4 | – | O=C(CCOc1ccccc1)Nc1ccc(-c2cccc3nc(NC(=O)C4CC4)nn23)cc1 [Compound 108]
14 | < 100 | < 100 | > 1000 | > 1000 | > 1000 | * (* 0-25) | * (* 0-25) | 34.6 | 1 | – | CN(CCc1ccccc1)C(=O)c1ccc(-c2cccc3nc(NC(=O)C4CC4)nn23)cc1 [Compound 96, 4-(2-(cyclopropanecarboxamido)-[1,2,4]triazolo[1,5-a]pyridin-5-yl)-N-methyl-N-phenethylbenzamide]
